Results published in patent publication US4241051A, “Calcitonin” (priority 1977, dated 1980).

Test system: bPTH-stimulated resorption
Assay: Calcitonin ear drops in 45Ca-labelled guinea pigs; 45Ca release from explanted ossicles after bPTH stimulation
Format: in vivo
Conditions: for antagonism by calcitonin of the bPTH-stimulated resorption (45Ca release into bathing medium): 40 hour reading
Experimental: A large dose of radio calcium (400 μCi of ^45 Ca) is administered intravenously to each of eight guinea pigs to label their skeletons. On the third, fourth and fifth days after administration of the radiocalcium each of the guinea pigs receives ear drops containing a solution of synthetic salmon calcitonin (Armour Pharmaceutical Co.) dissolved in dimethylsulphoxide (0.1 ml of solution containing 25μg of calcitonin). Four of the animals receive calcitonin to the right ear and four to the left ear, 0.1 ml of dimethylsulphoxide being given to the other ear in each case as a control.
One hour before sacrifice on the fifth day three animals from each group of four are treated intravenously with 500 MRC units of bovine parathyroid hormone (bPTH; 2000U/mg) in diluted plasma to stimulate bone resorption, the remaining animal in each group receiving diluted plasma only as a control. After sacrifice in alternation by ether anaesthesia, the ossicles of each ear of each animal are removed by the opening the temporal bone from its lower surface, remote from the external ear to which calcitonin has been applied. They are explanted onto a filter disc (Millipore HA) in a tissue culture dish containing 1 ml of the Fitton-Jackson modification of BGJ (Gibco-Biocult Ltd) with added ascorbic acid (150 μg/ml), streptomycin (5 mg/100 ml) and penicillin (5000U/100 ml), gassed with 93% air, 7% carbon dioxide. The bathing medium is withdrawn from each dish after 20, 40 and 60 hours incubation in an airtight container at 37° C. and is replaced with freshly gassed medium. After addition to 4 ml aliquots of scintillator (Packard Instagel) the samples are subjected to liquid scintillation spectrometry (Packard 2425 set to the ^14 C channel).
In a variation of the procedure described above, the calcitonin is administered in 0.1% w/v aqueous sodium dioctyl sulphosuccinate rather than in dimethyl sulphoxide in two separate experiments, the whole of the ossicles being explanted as described above in the first case and only the stapes being explanted in the second. In these two experiments some variation is made in the radiolabelling procedure, only 200 μCi of ^45 Ca being given in the first case but intraperitoneally rather than intravenously to facilitate the labelling of bone and 400 μCi of ^45 Ca being given in the second case, also intraperitoneally, but with omission of the methyl red from the BGJ culture medium as this causes considerable quenching.
A group of twenty-four guinea pigs is treated as described in Example 1 to effect labelling of their skeletons, a dose of 400 μCi of ^45 Ca being given intraperitoneally. The animals are then divided into three groups which are treated as described in Example 1 with 0.1 ml of a solution of concentration 27.8 μg/ml, 83.3 μg/ml or 250 μg/ml of synthetic salmon calcitonin in 0.1% w/v aqueous sodium dioctyl sulphosuccinate. The subsequent treatment of the animals follows that of Example 1, the methyl red being omitted from the BGJ culture medium.

Substance: synthetic salmon calcitonin
- level of effect on 45Ca release from explanted ossicles (Example 2, 0.1 ml ear drops of 27.8 μg/ml in 0.1% w/v aqueous sodium dioctyl sulphosuccinate): little effect
- level of effect on 45Ca release from explanted ossicles (Example 2, 0.1 ml ear drops of 83.3 μg/ml in 0.1% w/v aqueous sodium dioctyl sulphosuccinate, compared with 250 μg/ml): very similar level of effect
- level of effect on 45Ca release from explanted ossicles (Example 2, 0.1 ml ear drops of 250 μg/ml in 0.1% w/v aqueous sodium dioctyl sulphosuccinate, compared with 83.3 μg/ml): very similar level of effect
- duration of effect after application in vivo (Example 2, bathing medium examined after 20, 40 and 60 hours of culture): effect of extended duration
- antagonism by calcitonin of the bPTH-stimulated resorption (45Ca release into bathing medium) (ear drops 0.1 ml with 25 μg calcitonin in dimethylsulphoxide, days 3-5, whole of the ossicles explanted, p<0.01): highly significant
- antagonism by calcitonin of the bPTH-stimulated resorption (45Ca release into bathing medium) (ear drops with calcitonin in 0.1% w/v aqueous sodium dioctyl sulphosuccinate, only the stapes explanted, p<0.005): highly significant
- antagonism by calcitonin of the bPTH-stimulated resorption (45Ca release into bathing medium) (ear drops with calcitonin in 0.1% w/v aqueous sodium dioctyl sulphosuccinate, whole of the ossicles explanted, p<0.01): highly significant
- concentration level generally required to achieve an adequate effect (topical composition, calcitonin with a potency of about 4500 International units per mg): greater than 25 micrograms per ml
